Assay results: patent US20260272988A1, “COMPOSITION COMPRISING MILK EXTRACELLULAR VESICLES AND GALACTOSE” (FrieslandCampina Nederland B.V., priority 2023, published 2026)

Tested on: C2C12 myotubes
Assay: Seahorse mito-stress test, oxygen consumption rate (OCR) in differentiated C2C12 myotubes
Assay type: cell-based
Conditions: for basal respiration (OCR): C2C12 myotubes exposed 24 hours, compared to control and vehicle control (PBS), FIG. 1 / FIG. 2
Procedure: The execution of the “Seahorse” experiment as used in this example is explained in more detail in Traba et al. (2016) J. Vis. Exp. (117), e54918 especially in FIG. 1 and text relating thereto, and in Rose S, et al. (2014) Oxidative Stress Induces Mitochondrial Dysfunction in a Subset of Autism Lymphoblastoid Cell Lines in a Well-Matched Case Control Cohort. PLoS ONE 9(1): e85436. doi:10.1371/journal.pone.0085436. Briefly, in the Seahorse essay, the Oxygen Consumption Rate (OCR) is measured before and after the addition of inhibitors to derive several parameters of mitochondrial respiration. Initially, baseline cellular OCR is measured, from which basal respiration can be derived by subtracting non-mitochondrial respiration. Next oligomycin, a complex V inhibitor, is added and the resulting OCR is used to derive ATP-linked respiration (by subtracting the oligomycin rate from baseline cellular OCR) and proton leak respiration (by subtracting non-mitochondrial respiration from the oligomycin rate). Next carbonyl cyanide-p-trifluoromethoxyphenyl-hydrazon (FCCP), a protonophore, is added to collapse the inner membrane gradient, allowing the ETC to function at its maximal rate, and maximal respiratory capacity is derived by subtracting nonmitochondrial respiration from the FCCP rate. […] Mitochondrial reserve capacity is calculated by subtracting basal respiration from maximal respiratory capacity. C2C12 cells were routinely cultured in High Glucose Dulbecco's Modified Eagle's Medium (DMEM) supplemented with 10% (v/v) fetal calf serum (FCS), 2 mM glutamine, 25 mM HEPES pH 7.2 and 1% (v/v/v) pen/strep/amphotericin B at 5% CO2 and 37 degrees Celsius. For Seahorse experiments, C2C12 myoblasts (passage 10-20, ATCC) were plated in the morning in XFe96 Seahorse culture plates at a density of 30.000 cells/well. Cells were kept in the flow cabinet for 1 h before being transferred to the incubator. After approximately 6-8 h cells, culture medium was replaced with C2C12 differentiation medium (DMEM with 2% horse serum). C2C12 cells were allowed to differentiate for 5 to 7 days. On the day before the Seahorse run, myotubes were exposed to different nutrients and/or Extracellular Vesicles (mEVs) for 24 hours. Exposure medium was prepared in C2C12 differentiation medium. Galactose and glucose were supplemented to differentiation medium from 1M stocks in H2O. […] In detail, following calibration and equilibration, plates were analyzed in measure/mix cycles of 3 minutes/2 minutes, respectively, in 180 ul Seahorse assay medium. […] In the final injection the nuclear fluorescent stain, Hoechst (40 uM), was also injected, to allow for cell number quantification. […] Images were analyzed using in-house generated scripts in ImageJ and R for processing data. […]

O=C[C@H](O)[C@@H](O)[C@@H](O)[C@H](O)CO [Sample 6, Galactose]
basal respiration (OCR): increase

O=C[C@H](O)[C@@H](O)[C@@H](O)[C@H](O)CO [Sample 7, Galactose]
basal respiration (OCR): increase

O=C[C@H](O)[C@@H](O)[C@@H](O)[C@H](O)CO [Sample 8, Galactose]
basal respiration (OCR): increase

O=C[C@H](O)[C@@H](O)[C@@H](O)[C@H](O)CO [galactose, D-galactose]
effect of a higher concentration on basal respiration (C2C12 myotubes, 1.4, 2.75, 5.5 mM, FIG. 2): increases
